# Tested on: alpha-MyHC
# Experiment: alpha-MyHC cytoblot in neonatal rat ventricular myocytes (NRVM)
# Type: cell-based
# Settings: Rattus norvegicus, Ventricular myocyte, Table 1, 72 hours, concentration giving 50% of maximum response
# Procedure: In vitro activity of each compound is measured using the alpha-MyHC cytoblot process. Briefly, neonatal rat ventricular myocytes (NRVM) at 120,000 cells/ml in HyQ DME/High modified culture media supplemented with 10% charcoal/dextran treated FBS, 0.1% Nutridoma-SP, 1:100 MEM non-essential amino acids, 1:50 MEM amino acids solution w/o L-Gln, 1 mM sodium pyruvate and 1:100 P/S/G, are plated on gelatin coated sterile 384-well plates (Costar 3712) at 6,000 cells per well. Cells are incubated overnight at 37° C. in 5% CO2 100% humidity. Following overnight growth the media is changed to HyQ DME/High modified culture media supplemented with 0.3% Nutridoma-SP, 1:100 MEM non-essential amino acids, 1:50 MEM amino acids solution w/o L-Gln, 1 mM sodium pyruvate and 1:100 P/S/G. Cells are then dosed with serial dilutions of each compound in DMSO. Each concentration in the dose range is dosed in quadruplicate. Dosing is done in such a way so that the final DMSO concentration was 0.44%. Compound dilutions are 3-fold with the final top concentration of 10 uM. […] Following dosing, the cells are incubated for 72 hours at 37° C. in 5% CO2 100% humidity and then processed with the cytoblot method. Briefly, cell media is aspirated and cell monolayers washed with PBS and fixed with 100% methanol for 30 minutes. Fixed cells are then blocked with PBS, 0.05% Tween-20, 1% BSA, for 1 hour. Following blocking, cells are incubated with primary alpha-MyHC-specific antibody (1:30 dilution of BA-G5 hybridoma conditioned media, ATCC HB276) for 1 hour. Following incubation with the primary antibody, cells are washed with PBS, 0.05% Tween-20, 1% BSA and incubated with secondary antibody (1:1000 dilution, goat-anti-mouse HRP, Southern Biotech, 1031-05) for 1 hour. Following incubation with the secondary antibody, wells are washed and incubated in SuperSignal, West Dura HRP-luminescence substrate for 30 seconds under shaking at room temperature. Luminescence is measured using a Packard Fusion plate reader. […] RLU values are converted into percent fraction of low control and dose responses are fitted to a sigmoidal 4-parameter equation (XLFit, IDBS) where the EC50 and Max Plateau values were extracted. […] Max Plateau is the […] maximum value determined by the dose response fit.
row,EC50,SMILES
1,85.7 nM,"CC(=O)C1=C(C)Nc2sc(C(=O)c3cccc([N+](=O)[O-])c3)c(N)c2C1c1ccccc1Cl (stereo not drawn) [Compound 4, 1-[3-amino-4-(2-chloro-phenyl)-6-methyl-2-(3-nitro-benzoyl)-4,7-dihydro-thieno[2,3-b]pyridin-5-yl]-ethanone]"

# Same assay, conditions: Table 1, 72 hours, concentration giving 50% of maximum response
row,EC50,SMILES
1,17.1 nM,"CCC(=O)C1=C(CC)Nc2sc(C(=O)c3ccc(Cl)c(Cl)c3)c(N)c2C1c1ccccc1F (racemic) [Compound 39, 1-[3-amino-2-(3,4-dichloro-benzoyl)-6-ethyl-4-(2-fluoro-phenyl)-4,7-dihydro-thieno[2,3b]pyridin-5-yl]-propan-1-one]"

# Same assay, conditions: Table 1, 72 hours, fitted maximum, percent fraction of low control (vehicle), in %
row,SMILES,Max Plateau
1,"CCC(=O)C1=C(CC)Nc2sc(C(=O)c3ccc(Cl)c(Cl)c3)c(N)c2C1c1ccccc1F (racemic) [Compound 39, 1-[3-amino-2-(3,4-dichloro-benzoyl)-6-ethyl-4-(2-fluoro-phenyl)-4,7-dihydro-thieno[2,3b]pyridin-5-yl]-propan-1-one]",272.61 ± 37.32
2,CC(=O)C1=C(C)Nc2sc(C(=O)c3ccc(Cl)c(Cl)c3)c(N)c2C1c1ccccc1 (stereo not drawn) [Compound 2],207.74 ± 23.00
3,CC(=O)C1=C(C)Nc2sc(C(=O)c3ccccc3)c(N)c2C1c1ccccc1 (stereo not drawn) [Compound 3],250.88 ± 32.62
4,CC(=O)C1=C(C)Nc2sc(C(=O)c3cccnc3)c(N)c2C1c1ccccc1 (stereo not drawn) [Compound 5],286.43 ± 42.04
5,CC(=O)C1=C(C)Nc2sc(C(=O)c3cccc(Br)c3)c(N)c2C1c1ccccc1 (stereo not drawn) [Compound 6],289.34 ± 70.69
6,CC(=O)C1=C(C)Nc2sc(C(=O)c3ccc(C)c(C)c3)c(N)c2C1c1ccccc1 (stereo not drawn) [Compound 8],172.29 ± 9.66
7,CC(=O)C1=C(C)Nc2sc(C(=O)c3cccc([N+](=O)[O-])c3)c(N)c2C1c1ccc(C(=O)O)cc1 (stereo not drawn) [Compound 9],100.00 ± 0.00
8,CC(=O)C1=C(C)Nc2sc(C(=O)c3ccncc3)c(N)c2C1c1ccccc1 (stereo not drawn) [Compound 10],210.00 ± 36.06
9,COc1ccc(C2C(C(C)=O)=C(C)Nc3sc(C(=O)c4ccccc4)c(N)c32)cc1 (stereo not drawn) [Compound 14],182.73 ± 26.95
10,COc1cccc(C2C(C(C)=O)=C(C)Nc3sc(C(=O)c4ccccc4)c(N)c32)c1 (stereo not drawn) [Compound 15],126.50 ± 24.27
11,CC(=O)C1=C(C)Nc2sc(C(=O)c3ccccn3)c(N)c2C1c1ccccc1 (stereo not drawn) [Compound 16],163.33 ± 32.15
12,COc1ccccc1C1C(C(C)=O)=C(C)Nc2sc(C(=O)c3ccccc3)c(N)c21 (stereo not drawn) [Compound 18],215.25 ± 44.08
13,CC(=O)C1=C(C)Nc2sc(C(=O)c3ccccc3)c(N)c2C1c1ccncc1 (stereo not drawn) [Compound 19],260.00 ± 36.06
14,CC(=O)C1=C(C)Nc2sc(C(=O)c3ccccc3)c(N)c2C1c1cccnc1 (stereo not drawn) [Compound 20],127.35 ± 23.71
15,CC(=O)C1=C(C)Nc2sc(C(=O)c3ccccc3)c(N)c2C1c1ccc(Cl)cc1 (stereo not drawn) [Compound 21],193.20 ± 49.26
16,CC(=O)C1=C(C)Nc2sc(C(=O)c3ccc(Cl)c(Cl)c3)c(N)c2C1c1ccc(Br)cc1 (stereo not drawn) [Compound 22],174.35 ± 23.39
17,CC(=O)C1=C(C)Nc2sc(C(=O)c3ccc(Cl)c(Cl)c3)c(N)c2C1c1ccc(O)cc1 (stereo not drawn) [Compound 23],277.53 ± 33.46
18,CC(=O)C1=C(C)Nc2sc(C(=O)c3ccccc3)c(N)c2C1c1ccccc1F (stereo not drawn) [Compound 24],260.35 ± 43.53
19,CC(=O)C1=C(C)Nc2sc(C(=O)c3ccccc3)c(N)c2C1C1CCCCC1 (stereo not drawn) [Compound 26],185.33 ± 55.04
20,CC(=O)C1=C(C)Nc2sc(C(=O)c3ccc(Cl)c(Cl)c3)c(N)c2C1c1ccccc1F (stereo not drawn) [Compound 27],220.13 ± 23.10
21,CC(=O)C1=C(C)Nc2sc(C(=O)c3ccc(Cl)c(Cl)c3)c(N)c2C1c1ccc(O)cc1Cl (stereo not drawn) [Compound 29],281.88 ± 32.78

row,SMILES,Max Plateau
1,Nc1c(C(=O)c2ccccc2)sc2c1C(c1ccccc1)C(C(=O)c1ccccc1)=C(c1ccccc1)N2 (stereo not drawn) [Compound 30],100.00 ± 0.00
2,CC(=O)C1=C(C)Nc2sc(C(=O)c3ccc(Cl)c(Cl)c3)c(N)c2C1c1ccc(C(C)(C)C)cc1 (stereo not drawn) [Compound 32],100.00 ± 0.00
3,CC(=O)C1=C(C)Nc2sc(C(=O)c3ccc(Cl)c(Cl)c3)c(N)c2C1c1cc(Cl)cc(Cl)c1 (stereo not drawn) [Compound 33],143.15 ± 21.22
4,CC(=O)C1=C(C)Nc2sc(C(=O)c3ccc(Cl)c(Cl)c3)c(N)c2C1c1ccccc1O (stereo not drawn) [Compound 34],184.69 ± 15.76
5,CCC(=O)C1=C(CC)Nc2sc(C(=O)c3ccc(Cl)c(Cl)c3)c(N)c2C1c1ccccc1 (stereo not drawn) [Compound 36],256.56 ± 24.93
6,CC(=O)C1=C(C)Nc2sc(C(=O)c3ccccc3)c(N)c2C1c1ccc(F)cc1 (stereo not drawn) [Compound 37],227.92 ± 12.46
7,CCC(=O)C1=C(CC)Nc2sc(C(=O)c3ccc(Cl)c(Cl)c3)c(N)c2C1c1ccccc1Cl (stereo not drawn) [Compound 38],288.93 ± 52.81
8,CCC(=O)C1=C(CC)Nc2sc(C(=O)c3ccc(Cl)c(Cl)c3)c(N)c2C1c1c(F)cccc1Cl (stereo not drawn) [Compound 40],244.87 ± 7.92
9,CC(=O)C1=C(C)Nc2sc(C(=O)c3ccc(Cl)c(Cl)c3)c(N)c2C1c1cccs1 (stereo not drawn) [Compound 41],178.47 ± 7.82
10,CC(=O)C1=C(C)Nc2sc(C(=O)c3ccc(Cl)c(Cl)c3)c(N)c2C1c1ccc[nH]1 (stereo not drawn) [Compound 42],160.56 ± 20.02
11,CC(=O)C1=C(C)Nc2sc(C(=O)c3ccccc3)c(N)c2C1c1ccc(C(F)(F)F)cc1 (stereo not drawn) [Compound 44],186.67 ± 11.55
12,CC(=O)C1=C(C)Nc2sc(C(=O)c3ccc(Cl)c(Cl)c3)c(N)c2C1c1ccc(C)cc1 (stereo not drawn) [Compound 45],108.63 ± 9.14
13,CC(C)C(=O)C1=C(C(C)C)Nc2sc(C(=O)c3ccc(Cl)c(Cl)c3)c(N)c2C1c1ccccc1 (stereo not drawn) [Compound 46],98.33 ± 4.08
14,CC(=O)C1=C(C)Nc2sc(C(=O)c3ccc(Cl)c(Cl)c3)c(N)c2C1c1ccc(Cl)c(Cl)c1 (stereo not drawn) [Compound 47],173.47 ± 25.64
15,CC(=O)C1=C(C)Nc2sc(C(=O)c3ccc(Cl)c(Cl)c3)c(N)c2C1c1ccc(C(F)(F)F)cc1 (stereo not drawn) [Compound 48],190.81 ± 37.09
16,CCC(=O)C1=C(CC)Nc2sc(C(=O)c3cccc(F)c3)c(N)c2C1c1ccccc1 (stereo not drawn) [Compound 49],299.18 ± 42.31
17,CC(=O)C1=C(C)Nc2sc(C(=O)c3ccc(Cl)c(Cl)c3)c(N)c2C1c1ccc(F)cc1 (stereo not drawn) [Compound 50],190.79 ± 27.94
18,CC(=O)C1=C(C)Nc2sc(C(=O)c3ccc(Cl)c(Cl)c3)c(N)c2C1c1ccc(Cl)cc1Cl (stereo not drawn) [Compound 52],122.73 ± 20.55
19,CCC(=O)C1=C(CC)Nc2sc(C(=O)c3ccc(Cl)c(Cl)c3)c(N)c2C1c1ccccc1Cl (stereo not drawn) [Compound 53],259.43 ± 26.30
20,CCC(=O)C1=C(CC)Nc2sc(C(=O)c3ccc(Cl)c(Cl)c3)c(N)c2C1c1cccc(Cl)c1 (stereo not drawn) [Compound 54],267.44 ± 32.29
21,CC(=O)C1=C(C)Nc2sc(C(=O)c3ccc(Cl)c(Cl)c3)c(N)c2C1c1cc(F)cc(F)c1 (stereo not drawn) [Compound 55],229.93 ± 37.33

# Same assay, conditions: Table 2, 72 hours, fitted maximum, percent fraction of low control (vehicle), in %
row,SMILES,Max Plateau
1,CCC1=C(C(=O)OC)C(c2ccnc(F)c2)c2c(sc(C(=O)c3cccc(Cl)c3)c2N)N1 (racemic) [Compound 175],289.91
2,COC(=O)C1=C(C2CC2)Nc2sc(C(=O)c3cccc(Cl)c3)c(N)c2C1c1ccnc(F)c1 (racemic) [Compound 176],218.25
3,COC(=O)C1=C(C(C)C)Nc2sc(C(=O)c3cccc(C#N)c3)c(N)c2C1c1ccccc1F (racemic) [Compound 177],162.75
4,CCOC(=O)C1=C(CC)Nc2sc(C(=O)c3ccc(F)c(CC(=O)OC)c3)c(N)c2C1c1ccccc1 (racemic) [Compound 194],188.67
5,"CCC1=C(C(=O)OC(C)CC)C(c2ccccc2F)c2c(sc(C(=O)c3ccc(Cl)c(Cl)c3)c2N)N1 (single isomer, unassigned) [Compound 162]",183.22
6,"CCC1=C(C(=O)OC(C)CC)C(c2ccccc2F)c2c(sc(C(=O)c3ccc(Cl)c(Cl)c3)c2N)N1 (single isomer, unassigned) [Compound 163]",224.85
7,"CCC1=C(C(=O)OC(C)CC)C(c2ccccc2F)c2c(sc(C(=O)c3cccc(C#N)c3)c2N)N1 (single isomer, unassigned) [Compound 166]",219.07

# Same assay, conditions: Table 3, 72 hours, fitted maximum, percent fraction of low control (vehicle), in %
row,SMILES,Max Plateau
1,CCNC(=O)C1=C(C)Nc2sc(C(=O)c3ccc(Cl)c(Cl)c3)c(N)c2C1c1ccccc1 (racemic) [Compound 195],126.67 ± 23.09
2,CCCCNC(=O)C1=C(C)Nc2sc(C(=O)c3ccc(Cl)c(Cl)c3)c(N)c2C1c1ccccc1 (racemic) [Compound 196],121.93 ± 25.12

# Same assay, conditions: Table 5, 72 hours, fitted maximum, percent fraction of low control (vehicle), in %
row,SMILES,Max Plateau
1,COCCOCN1C(C)=C(C(C)=O)C(c2ccccc2)c2c1sc(C(=O)c1ccccc1)c2N (racemic) [Compound 209],192.74
